Assay results: ChEMBL document CHEMBL5143575, “Anti-Lea monoclonal antibody SPM 522 recognizes an extended Lea epitope” (Bioorg Med Chem, 2022)

What was measured:
[1] = Inhibition of (Le(a)Le(x))14-BSA conjugate binding to mouse Anti-Le(a) monoclonal antibody SPM 522 preincubated with mAb for 1 hr followed by incubation with immobilized antigen BSA-conjugate for 3 hrs by competitive ELISA
Mus musculus = organism: Mus musculus; assay: Inhibition of (Le(a)Le(x))14-BSA conjugate binding to mouse Anti-Le(a) monoclonal antibody SPM 522 assessed as change in free energy preincubated with mAb for 1 hr followed by incubation with immobilized antigen BSA-conjugate for 3 hrs by competitive ELISA relative to control; conditions: time 4.0 hrs

| Structure (SMILES) | IC50 [1] | deltaG (Mus musculus) |
| --- | --- | --- |
| CCCCCCO[C@@H]1O[C@H](CO)[C@@H](O[C@@H]2O[C@H](CO)[C@H](O)[C@H](O[C@@H]3O[C@H](CO)[C@@H](O[C@@H]4O[C@@H](C)[C@@H](O)[C@@H](O)[C@@H]4O)[C@H](O[C@@H]4O[C@H](CO)[C@H](O)[C@H](O)[C@H]4O)[C@H]3NC(C)=O)[C@H]2O)[C@H](O[C@@H]2O[C@@H](C)[C@@H](O)[C@@H](O)[C@@H]2O)[C@H]1NC(C)=O | 0.023 mM | 0 kcal/mol |
| CCCCCCO[C@@H]1O[C@H](CO)[C@@H](O[C@@H]2O[C@H](CO)[C@H](O)[C@H](O[C@@H]3O[C@H](CO)[C@@H](O)[C@H](O[C@@H]4O[C@H](CO)[C@H](O)[C@H](O)[C@H]4O)[C@H]3NC(C)=O)[C@H]2O)[C@H](O[C@@H]2O[C@@H](C)[C@@H](O)[C@@H](O)[C@@H]2O)[C@H]1NC(C)=O (stereo in doubt) | 1.35 mM | 2.4 kcal/mol |
| CO[C@@H]1O[C@H](CO)[C@@H](O[C@@H]2O[C@@H](C)[C@H](O)[C@@H](O)[C@H]2O)[C@H](O[C@@H]2O[C@H](CO)[C@H](O)[C@H](O)[C@H]2O)[C@H]1NC(C)=O | 7.02 mM | 0.5 kcal/mol |
| CO[C@@H]1O[C@H](CO)[C@H](O)[C@H](O[C@@H]2O[C@H](CO)[C@@H](O)[C@H](O[C@@H]3O[C@H](CO)[C@H](O)[C@H](O)[C@H]3O)[C@H]2NC(C)=O)[C@H]1O | 0.538 mM | 1.8 kcal/mol |
| CCCCCCO[C@@H]1O[C@H](CO)[C@@H](O[C@@H]2O[C@H](CO)[C@H](O)[C@H](O[C@@H]3O[C@H](CO)[C@@H](O)[C@H](O[C@@H]4O[C@H](CO)[C@H](O)[C@H](O)[C@H]4O)[C@H]3NC(C)=O)[C@H]2O)[C@H](O)[C@H]1NC(C)=O | 1.2 mM | 2.3 kcal/mol |
| CO[C@@H]1O[C@H](CO)[C@@H](O[C@@H]2O[C@@H](C)[C@@H](O)[C@@H](O)[C@@H]2O)[C@H](O[C@@H]2O[C@H](CO)[C@H](O)[C@H](O)[C@H]2O)[C@H]1NC(C)=O | 3.09 mM | 0 kcal/mol |
